Test results: paper PMC8308911, “Pharmacokinetic Study of Anti-osteoarthritic Compounds of a Standardized Fraction from Sphaeralcea Angustifolia” (Pharmaceuticals, 2021)
“And” between values parts separate entries of the source, which are not always exact repeats. Equal values may be shown once. Read-outs that look alike come from different tables or passages of the source.

Assay: Pharmacokinetics after single oral administration of the SaTSS standardized fraction (plasma, HPLC, PKSolver)
Format: in vivo, ICR mice
Method: Analyses of HPLC were carried out in a Waters system (2695 Separation module) coupled to a diode array detector (2996) with a 190–600-nm detection range and operated by the Manager Millennium software system (Empower 1; Waters Corporation, Mexico City, Mexico). Separations were performed in a Spherisorb-ODS RP-18 column (250 × 4.6 mm, 5 µm; Waters Corporation, Mexico) employing a constant temperature of 25 °C during the analyses. Samples (20 µL) were eluted at a 1.0 mL/min flow rate with a gradient of mobile phases of (A) high-purity H2O with trifluoroacetic acid to 0.5% v/v (TFA, Sigma-Aldrich, Mexico City, Mexico) and (B) high purity CH3CN, and compounds were detected by monitoring absorbance for tomentin and scopoletin at λ = 343 nm and for sphaeralcic acid at λ = 357 nm. The mobile phase was started with water (100%) and was maintained for 1 min, then solvent B was gradually incorporated at 5% (at 2 min), at 30% (at 4 min), and at 50% (at 16 min). During the next 4 min, solvent B was increased to 100%, and this proportion was maintained for 5 min. Finally, the following 3 min were utilized to return the mobile phase to the initial condition. […] Identification of scopoletin and tomentin as well as sphaeralcic acid was performed by comparing their retention times (tomentin—11.288 min, scopoletin—11.349 min, coumarin mixure—11.457 min, and sphaeralcic acid—23.319 min) and absorbance spectra.
The mice were previously anesthetized with sodium pentobarbital (PiSA Agropecuaria), then retro-orbital sinus blood was obtained using heparinized capillaries and distributed to heparinized tubes, and tubes were centrifuged at 3500 g for 7 min. The plasma obtained was transferred to new tubes and stored at −4 °C until use.
Plasma samples were extracted with CH3CN and TFA (w/v) 20% (1:1), then vials were centrifuged at 14,000 g for 10 min and the supernatant was transferred to another vial and left to dry at room temperature. The precipitate was resuspended with 1 mL of high-purity methanol (Merk, México) and filtered through Teflon membrane (13 mm, 0.45 µm, Life Science). Each filtered sample was injected into the HPLC equipment, and the concentrations of tomentin and scopoletin at λ = 343 nm and of sphaeralcic acid at λ = 357 nm were obtained by comparison with pre-built calibration curves.
To evaluate the suitability of the assay for the pharmacokinetic studies, 400 mg/kg of the active SaTSS fraction standardized in a mixture of tomentin and scopoletin (7.1 mg/400 mg), and sphaeralcic acid (34.6 mg/400 mg) was administered orally or intravenously to the mice. The dose of SaTSS fraction was chosen based on previous research of active compounds, as the median efective dose of each compound and detectable concentrations of them in the fraction. For oral pharmacokinetics, ten animals were used in each group at different times (0, 1.3, 3.3, 5, 10, 20, 40, 60, 80, 120, and 240 min). For intravenous pharmacokinetics, three animals were used in each group at different times (2, 4, 6, 8, 10, 15, 20, 30, and 60 min) Subsequently, the mice were anesthetized, retro-orbital sinus blood was obtained, plasma samples were extracted with CH3CN and TFA (w/v) 20% (1:1), and the extracts were analyzed by HPLC for coumarin (tomentin and scopoletin) and sphaeralcic acid quantification. Pharmacokinetic calculations were performed using the observed data. All data were subsequently processed using the PKSolver add-in program for Microsoft Excel written in Visual Basic for Applications. All values obtained were expressed in mean ± Standard Deviation (SD). For the pharmacokinetic assay, the selection was made either from a one-compartment or from a two-compartment model, with the use of both the Akaike Information Criterion (AIC) and the Schwarz Criterion (SC). […]

[1] = oral 400 mg/kg SaTSS fraction, two-compartment model
[2] = oral 400 mg/kg SaTSS fraction, two-compartment model, 400 mg/kg
[3] = oral 400 mg/kg SaTSS fraction, two-compartment model, listed as Sphaeralcic Acid, 400 mg/kg
[4] = oral 400 mg/kg SaTSS fraction, two-compartment model, listed as sphaeralcic acid, 400 mg/kg

For `COc1c(C)cc2c(C(C)C)cc(C(=O)O)c(O)c2c1O` [Sphaeralcic acid, sphaeralcic acid], the AUC(0-t) (ICR, mouse, plasma, po, 400 mg/kg, oral 400 mg/kg SaTSS fraction, two-compartment model, read-out: AUC 0→240 (converted)) was 2900 ng·h/mL, the CL/F (ICR, mouse, plasma, po, 400 mg/kg, oral 400 mg/kg SaTSS fraction, two-compartment model, read-out: CL/F (apparent clearance related to bioavailability)) was 170 mL/min/kg and the Cmax (ICR, mouse, plasma, po, 400 mg/kg, oral 400 mg/kg SaTSS fraction, two-compartment model, read-out: Cmax) was 10400 ng/mL. For the same compound, the MRT (ICR, mouse, plasma, po, 400 mg/kg, oral 400 mg/kg SaTSS fraction, two-compartment model, read-out: MRT (mean residence time) (converted)) was 40.2 min, the Tmax (ICR, mouse, plasma, po, 400 mg/kg, oral 400 mg/kg SaTSS fraction, two-compartment model, read-out: Tmax (converted)) was 4 min and the Vd/F (ICR, mouse, plasma, po, 400 mg/kg, oral 400 mg/kg SaTSS fraction, two-compartment model, read-out: V/F (apparent volume of distribution related to bioavailability)) was 1.31 L/kg. The k el (ICR, mouse, plasma, po, 400 mg/kg, oral 400 mg/kg SaTSS fraction, two-compartment model, read-out: k10 (apparent first-order elimination rate constant from the central compartment) (converted)) was 0.00217 s⁻¹, the half-life (ICR, mouse, plasma, po, 400 mg/kg, oral 400 mg/kg SaTSS fraction, two-compartment model, read-out: t1/2β) was 44.6 min and the concentration at 1.3 min (ICR, mouse, plasma, oral single dose 400 mg/kg SaTSS fraction, 1.3 min, n = 10) was 5040 ± 50 ng/mL. It also gave a concentration at 3.3 min (ICR, mouse, plasma, oral single dose 400 mg/kg SaTSS fraction, 3.3 min, n = 10) of 9920 ± 410 ng/mL, a concentration at 5 min (ICR, mouse, plasma, oral single dose 400 mg/kg SaTSS fraction, 5 min, n = 10) of 12800 ± 540 ng/mL and a concentration at 10 min (ICR, mouse, plasma, oral single dose 400 mg/kg SaTSS fraction, 10 min, n = 10) of 4030 ± 110 ng/mL. The concentration at 20 min (ICR, mouse, plasma, oral single dose 400 mg/kg SaTSS fraction, 20 min, n = 10) was 2770 ± 80 ng/mL, the concentration at 40 min (ICR, mouse, plasma, oral single dose 400 mg/kg SaTSS fraction, 40 min, n = 10) was 1380 ± 120 ng/mL and the concentration at 80 min (ICR, mouse, plasma, oral single dose 400 mg/kg SaTSS fraction, 80 min, n = 10) was 170 ± 30 ng/mL. The concentration at 120 min (ICR, mouse, plasma, oral single dose 400 mg/kg SaTSS fraction, 120 min, n = 10) was 0 ng/mL, the concentration at 240 min (ICR, mouse, plasma, oral single dose 400 mg/kg SaTSS fraction, 240 min, n = 10) was 0 ng/mL and the “products derived from biotransformation in plasma” value (after oral administration of SaTSS fraction) was “not detected”. For the same compound, the “time at which the plasma concentration fell below LOQ” value (oral 400 mg/kg SaTSS fraction) was 80 min, the “time of maximum (highest) observed plasma concentration” value (oral 400 mg/kg SaTSS fraction, observed sampling time) was “five” and the “B (plasma concentration, peripheral compartment)” value [1] was 1.845 µg/mL. The “k12 (transfer rate constant central to peripheral compartment)” value [1] was 0.114 min⁻¹, the “k21 (transfer rate constant peripheral to central compartment)” value [1] was 0.031 min⁻¹ and the α [1] was 0.256 min⁻¹. For the same compound, the β [1] was 0.015 min⁻¹, the Cmax [2] was 10450 ng/mL and the “MRT (mean residence time)” value [2] was 40.17 min. For the same compound, the “A (plasma concentration, central compartment)” value [3] was 413.646 µg/mL, the “AUC 0→240” value [3] was 173.724 µg·min/mL and the “AUC 0→∞” value [3] was 208.058 µg·min/mL. The “CL/F (apparent clearance related to bioavailability)” value [3] was 0.166 (mg)/(µg/mL)/min, the Cmax [3] was 10447 ng/mL and the “MRT (mean residence time)” value [3] was 40.167 min. The Tmax [3] was 4.004 min, the “V/F (apparent volume of distribution related to bioavailability)” value [3] was 1.309 (mg)/(µg/mL) and the “k10 (apparent first-order elimination rate constant from the central compartment)” value [3] was 0.127 min⁻¹. The “ka (apparent first-order absorption rate constant)” value [3] was 0.273 min⁻¹, the “t1/2ka (absorption half time)” value [3] was 2.537 min and the t1/2α [3] was 2.698 min. For the same compound, the t1/2β [3] was 44.653 min, the “A (plasma concentration, central compartment)” value [4] was 413 µg/mL and the “ka (apparent first-order absorption rate constant)” value [4] was 0.27 min⁻¹ and 0.273 min⁻¹. The “t1/2ka (absorption half time)” value [4] was 2.53 min and the t1/2α [4] was 2.70 min.
